According to patent US9540325B2, “N1-cyclic amine-N5-substituted phenyl biguanide derivatives, methods of preparing the same and pharmaceutical composition comprising the same” (Immunomet Therapeutics, Inc., priority 2011, dated 2017):

What was measured:
HCT116 cells = experiment: Measurement of effect of inhibiting cancer cell proliferation (MTT); assay type: cell-based, human; conditions: for inhibition at 100 µM: HCT-116, 100 μM, read-out: Cell Growth Inhibition (%) at 100 μM
Outline: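 HCT116 cells (~5,000/well, DMEM with 10% FBS) treated 48 h with compound at 0.39–100 μM, metformin hydrochloride control at 0.1–25 mM. Viability by MTT (3 h, formazan in DMSO, A560) relative to untreated wells; GIC50 from the viability curve, also viability at 100 μM.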

[1] = Solubility in water of hydrochloride and acetate salts; assay type: physicochemical; conditions: content 5 mg/1 ml distilled water, room temperature
Protocol: The solubilities in water of the hydrochlorides prepared in Examples 26, 27, 32, 33, 48, 49, 53 and 54, and the solubilities in water of the acetates prepared in Examples 70 to 77, were compared.
The experimental conditions and methods are described, as follows.
1) 1 ml of distilled water is added to a container including 5 mg of salt at room temperature.
2) The resulting mixture is stirred for 10 minutes, and then kept at room temperature for 1 hour.
3) Undissolved residual salt is recovered and weighed.
4) The ratio of the amount of the recovered salt and the amount of the dissolved salt is calculated.
5) Operations 1) to 4) are repeatedly performed with increasing amount (i.e., 10, 15, 20, 25 and 30 mg) of salt.
The experimental procedures were performed for each of the hydrochlorides of Examples 26, 27, 32, 33, 48, 49, 53 and 54 and the acetates of Examples 70 to 77. The comparative solubilities obtained using the hydrochlorides of Examples 26, 27, 32, 33, 48, 49, 53 and 54 and the acetates of Examples 70 to 77 are listed in the following Table 1.

AMPKα = experiment: Measurement of AMPK activation effect (AMPKα Thr172 phosphorylation immunoassay) in MCF7 cells; assay type: cell-based, human; conditions: 24 hours; for AMPK activation effect at 10 μM (%) / AMPK activation effect at 50 μM (%): relative to untreated cells; for AMPK activation effect AC150: concentration at which AMPK activation reached 150%
Outline: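 MCF7 cells in DMEM/10% FBS were treated 24 h with derivatives at 5, 10 and 50 μM (metformin hydrochloride control, 0.05–10 mM). AMPKα Thr172 phosphorylation was measured by immunoassay on 20 μg lysate. AC150 (concentration giving 150% activation) came from concentration–response curves, with activation also reported at fixed concentrations.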

## Cl.N=C(NC(=N)N1CCCC1)Nc1ccc(C(F)(F)F)cc1 [Example 26, N1-pyrrolidine-N5-(4-trifluoromethyl)phenyl biguanide hydrochloride]
HCT116 cells; 48 hours, hydrochloride
  GI50: 22.7 µM
HCT116 cells; Homo sapiens, 48 hours
  inhibition at 100 µM: 97.6%
[1]
  Solubility in water (%), hydrochloride salt: 80%
AMPKα
  AMPK activation effect at 10 μM (%): 255%
  AMPK activation effect at 50 μM (%): 642%
  AMPK activation effect AC150: 3.1 µM

## Cl.N=C(NC(=N)N1CCCCC1)Nc1cccc(Cl)c1 [Example 20, N1-piperidine-N5-(3-chloro)phenyl biguanide hydrochloride]
HCT116 cells; Homo sapiens, 48 hours
  inhibition at 100 µM: 97.5%
HCT116 cells; Homo sapiens, HCT-116, 48 h
  GI50: 48.2 µM
AMPKα
  AMPK activation effect at 10 μM (%): 236%
  AMPK activation effect at 50 μM (%): 558%
  AMPK activation effect AC150: 3.2 µM

## Cl.N=C(NC(=N)N1CCCCCC1)Nc1cccc(Cl)c1 [Example 21, N1-azepane-N5-(3-chloro)phenyl biguanide hydrochloride]
HCT116 cells; Homo sapiens, 48 hours
  inhibition at 100 µM: 97%
HCT116 cells; Homo sapiens, HCT-116, 48 h
  GI50: 41.5 µM
AMPKα
  AMPK activation effect at 10 μM (%): 211%
  AMPK activation effect at 50 μM (%): 653%
  AMPK activation effect AC150: 4.8 µM

## Cl.N=C(NC(=N)N1CCCCC1)Nc1ccc(C(F)(F)F)cc1 [Example 27, N1-piperidine-N5-(4-trifluoromethyl)phenyl biguanide hydrochloride]
HCT116 cells; Homo sapiens, 48 hours
  inhibition at 100 µM: 97.7%
HCT116 cells; Homo sapiens, HCT-116, 48 h
  GI50: 6.7 µM
[1]
  Solubility in water (%), hydrochloride salt: 20%
AMPKα
  AMPK activation effect at 10 μM (%): 455%
  AMPK activation effect AC150: 2.4 µM
